Reference: patent US20220313581A1, “NOVEL COMPOUNDS FOR SKIN LIGHTENING” (Conopco, Inc. , d/b/a UNILEVER, priority 2019, published 2022)

Tested on: Melanoderm human tissue (MEL-300-B, Mattek Corp.)
Test: Melanoderm assay (melanin quantitation)
Assay type: cell-based
Settings: for Melanin content / skin lightening effect (in words): melanoderm treatment, 10 uM, compared to vehicle control; for Melanin (μg/μg protein): test compound 10 uM, 12 d dosing, melanin normalized to protein, mean +/− standard deviation, n = 3, vehicle control 0.240 +/− 0.020
Experimental: Control compounds consisted of a negative control (ultrapure water), vehicle control [Dimethylsulfoxide (DMSO) in ultrapure water—final concentration of 0.1%] and positive control (2% kojic acid in ultrapure water—final concentration of 700 uM). Test compounds where prepared in DMSO at 10 mM concentrations and diluted with EPI-100-LLMM media (Mattek Corp.) to a final concentration of 10 uM. Melanoderm human tissue (MEL-300-B, Mattek Corp.) was equilibrated with EPI-100-NMM media for 24 h, followed by equilibration with EPI-100-LLMM media for 48 h prior to treatment with test compounds and controls. Dosing and re-feeding of melanoderms with controls and test compounds continued for a total of 12 d following standard protocols and the melanoderms collected for melanin quantitation, viability analysis and macroscopic/microscopic imaging analysis. For melanin quantitation, tissues were suspended in phosphate buffer saline (PBS) buffer (5 ml) for 5 min, removed from the PBS and washed/rinsed with additional PBS (2 ml). Tissues were treated with 1% sodium bicarbonate solution (300 ul) for 30 min, followed by removal of the sodium bicarbonate solution and washed/rinsed with PBS solution (2×2 ml). Tissues were suspended in Solvable reagent (500 ul) and incubated at 95° C. for 24 h along with melanin standard samples (prepared by suspending melanin (cat #M8631, Sigma-Aldrich) in Solvable reagent to generate melanin standards at 0, 2.5, 5, 10, 25, 50 and 100 ug). All incubated samples were centrifuged at 13000 rpm for 5 min and the optical density of the supernatant was read/determined at 490 nm. The amount of melanin (ug) from each tissue sample was determined from the melanin standard samples calibration curve. Protein concentration of tissue samples was determined using the BCA protein assay kit (Pierce) and melanin content was normalized and expressed as melanin (ug)/protein (ug) (Table 1). Tissue viability as a result of test compound dosing/feeding relative to negative and vehicle controls was determined using the WST-1 reagent kit (cat #05015944001, Roche). Tissue images were examined macroscopically to assess the skin lightening ability of test compounds compared to negative, vehicle and positive controls and microscopically (10× magnification) to assess cytotoxicity.

Structure (SMILES): CC(C)Oc1ccc(C(NC2CCC(O)CC2)C2CCCCC2)cc1 (stereo not drawn) [Example 1, 4-((cyclohexyl(4-isopropoxyphenyl)methyl)amino)cyclohexanol]
- Melanin content / skin lightening effect (in words): reduced melanin content
- Melanin (μg/μg protein): 0.158 +/− 0.006 μg/μg protein

Structure (SMILES): CC(C)Oc1ccc(C(NC2CCC(CCO)CC2)c2ccccc2)cc1 (stereo not drawn) [Example 2, 2-(4-(((4-isopropoxyphenyl)(phenyl)methyl)amino)cyclohexyl)ethanol]
- Melanin content / skin lightening effect (in words): reduced melanin content
- Melanin (μg/μg protein): 0.076 +/− 0.012 μg/μg protein

Structure (SMILES): CC1CCC(NC(c2ccccc2)c2ccc(OC(C)C)cc2)CC1 (stereo not drawn) [Example 3, N-((4-isopropoxyphenyl)(phenyl)methyl)-4-methylcyclohexanamine]
- Melanin content / skin lightening effect (in words): reduced melanin content
- Melanin (μg/μg protein): 0.144 +/− 0.006 μg/μg protein
